Reference: publication PMC8938411, “Novel functional insights into a modified sugar-binding protein from Synechococcus MITS9220” (Scientific Reports, 2022)

Target: T1, MsBP (modified sugar-binding protein, MITS9220_00117), zinc-bound Zn-MsBP
T1 construct: Tat signal peptide removed, N-terminal hexahistidine tag with thrombin cleavage site (pET15-b)
Assay: ITC of purified MsBP pre-incubated with Zn2+ ([…]x molar excess); supported by DSF (TM […] °C with Zn and FBP)
Design: species or system Synechococcus sp. MIT S9220

Compound: O=P(O)(O)OC[C@H]1OC(O)(COP(=O)(O)O)[C@@H](O)[C@@H]1O (stereo partly shown) [FBP, fructose-1,6-bisphosphate]
- Kd: 5.8 µM
